Like-named read-outs stand apart in the source and are kept apart here.

Details of series [1]: method as in earlier work. The note with it: experimental value; ref https://comptox.epa.gov/dashboard, https://echa.europa.eu/es/information-on-chemicals; cited from earlier work.
The nature of series [2]: PBT assessment (persistence, bioaccumulation and FET toxicity combined, logical AND). Conditions: persistent, bioaccumulative and toxic all positive. Here is the method:
(§1) Acute toxicity was determined using the OECD236 fish embryo acute toxicity (FET) test (OECD guidelines). To assess the PBT potentiality of the analysed compounds, persistence and the logKow as a measure of bioaccumulation were extracted from public databases (https://comptox.epa.gov/dashboard, and https://echa.europa.eu/es/information-on-chemicals).
Ecotoxicity of selected compounds was screened with the FET assay to determine acute toxicity and using available predictions of persistence and bioaccumulation.

Series [3] can be described thus: logKow as a measure of bioaccumulation, extracted from public databases. Format: physicochemical. Conditions: yes/no by logKow, REACH cut off 4,5.
Series [4] has as its system androgen and oestrogen receptors. In words: ED assays of androgen and oestrogen receptors (overall experimental ED result). It counts as cell-based. Here is the method: The transcriptional activation of androgen receptor (AR) assays was carried out by adapting the OECD protocol 458 (OECD [2020]).
MDA-MB-453 cells (8000 cells/well) expressing an AR luciferase reporter were seeded into 384 white plates (Greiner 781098) in culture medium (DMEM (ATCC), 10% foetal bovine serum (Sigma Aldrich), 1% penicillin–streptomycin (Sigma-Aldrich), 75 µg/ml geneticin (Gibco) and incubated overnight at 37 °C 5% CO2 and 95% humidity. After this time, the cell culture medium was discarded and replaced by assay medium (DMEM (ATCC), 0.1% foetal bovine serum (Sigma-Aldrich), and 1% penicillin–streptomycin (Sigma Aldrich)).
For studying a putative agonist effect, compounds were added to the assay plate using an Echo 550 acoustic liquid handler and incubated overnight at 37 °C 5% CO2 and 95% humidity. For studying the putative antagonist effect, compounds were added using an Echo 550 acoustic liquid handler and incubated for 15 min at 37 °C 5% CO2 and 95% humidity. Then, 1 nM 5α-dihydrotestosterone (DHT) was added, and the cell plate was incubated overnight at 37 °C, 5% CO2, and 95% humidity. After compound incubation, the cell medium was removed, 5 µl of lysis buffer 1X (Promega) was added, and the cell plate was incubated with agitation 15 min at room temperature. A freeze–thaw cycle of 10 min at −80 °C and room temperature was performed. Then 25 µl of luciferase assay reagent (Promega) was added and luminescence was determined on an EnSpire plate reader (Perkin Elmer). Data was fitted to a four-parameter sigmoidal model with Prism 5.1 (Graphpad, Inc).
The transcriptional activation of oestrogen receptor (ER) assay was carried out by adapting the OECD protocol 455 (OECD [2021]) and the method of Li et al. ([2013]).
ER luciferase reporter T47D cells (5000 cells/well) were seeded into 384 white plates (Greiner 781098) in culture medium (RPMI 1640 (Thermo Fisher Scientific 52400), 10% foetal bovine serum (Sigma Aldrich F9665), 1% penicillin–streptomycin (Sigma-Aldrich P0781), 75 µg/ml Geneticin (Gibco 10131)) and incubated overnight at 37 °C and 5% CO2. The following day, the cell culture medium was discarded and replaced by assay medium (RPMI 1640 (Thermo Fisher Scientific 52,400), 0.1% foetal bovine serum (Sigma Aldrich F9665), and 1% penicillin–streptomycin (Sigma Aldrich P0781).
The assay was performed as stated before for the AR assay using 17β-estradiol as agonist instead of DHT.
ED was assessed by transactivation in vitro assays to identify agonists and antagonists of the androgen and oestrogen receptors.
Also, the experimental group analysed the endocrine-disrupting activity for the CMR compounds.

In series [5] the test system is thyroid system. The note with it: cited from earlier work.
Series [6] deals with zebrafish embryos. Conditions: FET assay. Here is the method:
as §1

`Clc1cc(Cl)c(Cl)c(Cl)c1Cl` [1,2,3,4,5-Pentachlorobenzene]: the “Bioaccumulation (logKow)” value in series [1] is 5.17. The “Potential PBT” value in series [2] (listed as Pentachlorobenzene) is listed as “YES”; in series [2] (listed as pentachlorobenzene) it was “potential PBT compounds”. Besides, the Bioaccumulation entry in series [3] is listed as “Yes”.

For the compound `Clc1cc(Cl)c(Cl)c(Cl)c1` [1,2,3,5-Tetrachlorobenzene], in series [1], the “Bioaccumulation (logKow)” value was 4.61. Also, the Experimental result in series [4] (endocrine disruptor yes/no) is “No”. Further, in series [5] (ref Chu et al. [1983], den Besten et al. [1991]), the endocrine-disrupting activity entry is listed as “thyroid system affection”. The results for the “Potential PBT” value in series [2] and in series [2] (listed as 1,2,3,5-tetrachlorobenzene) were “YES” and “potential PBT compounds”, respectively. In series [3], the Bioaccumulation result is listed as “Yes”.

As for `Oc1cc(Cl)cc(Cl)c1Cl` [2,3,5-Trichlorophenol], in series [1], the “Bioaccumulation (logKow)” value is listed as 3.84. For the same compound, in series [4], the Experimental result was “Yes”. Moreover, the “Potential PBT” value in series [2] is listed as “not a potential PBT compound”. Besides, the Bioaccumulation entry in series [3] is “No”.

Take `ClC1C(Cl)C(Cl)C(Cl)C(Cl)C1Cl` (stereo not drawn) [(1α,2α,3α,4β,5α,6β)-1,2,3,4,5,6-Hexachlorocyclohexane]: in series [1], the “Bioaccumulation (logKow)” value is reported as 3.95. Besides, the Bioaccumulation entry in series [3] was “No”. For the same compound, the acute toxicity entry in series [6] is on record as “highly toxic”.

In the case of `O=C(O)C(F)(F)C(F)(F)C(F)(F)C(F)(F)F` [Nonafluorovaleric acid], in series [4] (endocrine disruptor yes/no), the Experimental result was “No”. Further, the endocrine-disrupting activity result in series [5] (ref Coperchini et al. [2021], Croce et al. [2019]) was “thyroid system affection”.

The values are drawn from publication PMC10025185, “A continuous in silico learning strategy to identify safety liabilities in compounds used in the leather and textile industry” (Archives of Toxicology, 2023).
